One assay deals with M17_3SYN cells. The assay can be described thus: Paraquat-induced cytotoxicity (LDH) in α-synuclein over-expressing M17_3SYN neuroblastoma cells. It is filed as cell-based, human. The note with it: Homo sapiens, Neuroblastoma cell, 48 h, toxicity inhibition (LDH) in M17_3SYN cells challenged with 6 mM paraquat, 2 days; read-out: SYN EC50. A digest of the protocol:
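Human BE-M17 neuroblastoma cells stably overexpressing wild-type α-synuclein challenged with paraquat (final 6 mM) for 2 days at 37 °C alongside compounds over a concentration range. Cytotoxicity as LDH released relative to total LDH; EC50 from dose-dependent inhibition curve.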

Another assay concerns INS-1E cells. As to the kind of experiment: Cytokine-induced caspase-3/7 activation in INS-1E cells (beta cell stress/apoptosis model, Caspase-Glo 3/7). The assay is classed as cell-based. The note with it: Rattus norvegicus, cytokine mix (IFN-γ, IL-1β, TNF-α), 24 hours, caspase 3/7 activity, read-out: CYT EC50. The source says: The INS-1E cell line, a rat insulinoma cell line, has been characterized extensively. INS-1E cells respond to glucose by secreting insulin and, unlike most other immortalized β-cell lines, they do this in a consistent manner over time. The cells are sensitive to hyperglycemia-, free fatty acid (FFA)-, and cytokine-induced stress. Prolonged stress ultimately leads to induction of apoptotic pathways and, if stress is not counter-acted, to apoptosis. Caspase-3 and -7 play a central role downstream where various apoptotic pathways merge. As such, activation (i.e. cleavage) of these caspases forms a relevant primary read-out to evaluate protective activity of compounds against stress-induced apoptosis.
To evaluate the efficacy of different compounds to prevent induction of apoptosis, an in vitro screen was developed in which INS-1E cells were exposed to a cytokine mix (IFN-γ, 5 ng/ml; IL-1β, 20 pg/ml; TNF-α, 0.25 ng/ml). The degree of induction of apoptosis was evaluated using a substrate for cleaved caspase-3 and -7, i.e. a proluminescent caspase-3/7 DEVD aminoluciferin substrate with a thermostable luciferase (Caspase-Glo® 3/7 assay; Promega, cat. G8092).
On day 0, INS-1E cells were plated in a white-walled 96-well microplate (Greiner, cat. 655098) at 20,000 cells per well in 100 μl complete medium (RPMI containing 11 mM glucose supplemented with 5% FCS, 100 IU/ml penicillin, 100 μg/ml streptomycin, 10 mM HEPES, 1 mM Sodium Pyruvate and 50 μM 2-Mercapto-ethanol). On day 2, 100 μl medium containing cytokines and compound dissolved in DMSO was added to the cells. Wells without cytokines containing DMSO and wells with cytokines and DMSO were included to evaluate the degree of caspase 3/7 activation by the cytokine mix. After 24 hours exposure to cytokines and/or compound, Caspase-Glo® 3/7 reagent was added to the cells and caspase activity was determined by measuring luminescence.
To evaluate compound efficacy, the “toxicity window” was calculated by subtracting caspase activity of wells without stressor from activity of wells with stressor but without compound. The amount of caspase activity in the latter wells was normalized to 1 and used as reference. Subsequently, caspase activity in the wells with stressor and varying concentrations of compound was calculated relative to the wells without compound. Plotting caspase activity vs the log 10 of the concentration of compound permitted calculation of the EC50 values for the compounds which typically lied between 0.0001 and 10 μM. Compounds with an EC50<10 μM were considered active.

Structures are written as SMILES.

A word on the EC50: it is the midpoint of the concentration-response curve. Consider `CSc1ccc(S(=O)(=O)N2CCN(c3nc(C(C)(C)c4ccc(F)cc4)no3)CC2)cc1` [Cmpd116, 1-{3-[1-(4-Fluoro-phenyl)-1-methyl-ethyl]-[1,2,4]oxadiazol-5-yl}-4-(4-methylsulfanyl-benzenesulfonyl)-piperazine], for which the EC50 with M17_3SYN cells turned out to be 7 nM; with INS-1E cells, 26 nM.

Take `CSc1ccc(S(=O)(=O)N2CCN(c3nc(C(F)(F)c4ccc(Cl)cc4)no3)CC2)cc1` [Cmpd145, 1-{3-[(4-Chloro-phenyl)-difluoro-methyl]-[1,2,4]oxadiazol-5-yl}-4-(4-methylsulfanyl-benzenesulfonyl)-piperazine]: the EC50 in the assay on M17_3SYN cells turned out to be 15 nM; in the assay with INS-1E cells, 82 nM.

For `CSc1ccc(S(=O)(=O)N2CCN(c3nc(C4(c5ccccc5)CC4)no3)CC2)cc1` [Cmpd126, 1-(4-Methylsulfanyl-benzenesulfonyl)-4-[3-(1-phenyl-cyclopropyl)-[1,2,4]oxadiazol-5-yl]-piperazine], the EC50 with M17_3SYN cells came to 7 nM; with INS-1E cells, 28 nM.

Regarding `COc1ccc(S(=O)(=O)N2CCC3(CC2)CN(c2nc(CC(F)(F)F)no2)C3)cc1` [Cmpd214, 5-(7-((4-Methoxyphenyl)sulfonyl)-2,7-diazaspiro[3.5]nonan-2-yl)-3-(2,2,2-trifluoroethyl)-1,2,4-oxadiazole], the EC50 with M17_3SYN cells is 164 nM; in the assay with INS-1E cells it was 55 nM.

Take `COc1ccc(S(=O)(=O)N2CCN(c3nc(C4(c5ccc(F)cc5)CC4)no3)CC2)cc1` [Cmpd105, 1-{3-[1-(4-Fluoro-phenyl)-cyclopropyl]-[1,2,4]oxadiazol-5-yl}-4-(4-methoxy-benzenesulfonyl)-piperazine]: the concentration giving a half-maximal response (EC50) in the assay with M17_3SYN cells stood at 9 nM; with INS-1E cells, 27 nM.

For the compound `CSc1ccc(S(=O)(=O)N2CCN(c3nc(C(F)(F)c4ccc(F)cc4)no3)CC2)cc1` [Cmpd151, 1-{3-[Difluoro-(4-fluoro-phenyl)-methyl]-[1,2,4]oxadiazol-5-yl}-4-(4-methylsulfanyl-benzenesulfonyl)-piperazine], the results for the EC50 with M17_3SYN cells and in the assay with INS-1E cells were 13 nM and 41 nM, respectively.

For the compound `CCOc1ccc(S(=O)(=O)N2CCN(c3nc(C4(c5ccccc5)CC4)no3)CC2)cc1` [Cmpd121, 1-(4-Ethoxy-benzenesulfonyl)-4-[3-(1-phenyl-cyclopropyl)-[1,2,4]oxadiazol-5-yl]-piperazine], the EC50 in the assay with M17_3SYN cells was 10 nM; in the assay on INS-1E cells, 186 nM.

As to `COc1ccc(S(=O)(=O)N2CCN(c3nc(COCC4CC4)no3)CC2)cc1` [Cmpd203, 3-((Cyclopropylmethoxy)methyl)-5-(4-((4-methoxyphenyl)sulfonyl)piperazin-1-yl)-1,2,4-oxadiazole], the EC50 with M17_3SYN cells was 8 nM; with INS-1E cells, 153 nM.

Take `CSc1ccc(S(=O)(=O)N2CCN(c3nc(C4(c5cccc(Cl)c5)CC4)no3)CC2)cc1` [Cmpd137, 1-{3-[1-(3-Chloro-phenyl)-cyclopropyl]-[1,2,4]oxadiazol-5-yl}-4-(4-methylsulfanyl-benzenesulfonyl)-piperazine]: the half-maximal effective concentration (EC50) stood at 7 nM with M17_3SYN cells and 9 nM in the assay on INS-1E cells.

In the case of `COc1ccc(S(=O)(=O)N2CCN(c3nc(C(C)(C)c4ccnc(C)c4)no3)CC2)cc1` [Cmpd195, 5-(4-((4-Methoxyphenyl)sulfonyl)piperazin-1-yl)-3-(2-(2-methylpyridin-4-yl)propan-2-yl)-1,2,4-oxadiazole], the results for the EC50 with M17_3SYN cells and in the assay on INS-1E cells were 70 nM and 52 nM, respectively.

For the compound `COc1ccc(S(=O)(=O)N2CCN(c3nc(C(C)(C)c4ccc(F)cc4)no3)CC2)cc1` [Cmpd113, 1-{3-[1-(4-Fluoro-phenyl)-1-methyl-ethyl]-[1,2,4]oxadiazol-5-yl}-4-(4-methoxy-benzenesulfonyl)-piperazine], the EC50 with M17_3SYN cells is 8 nM; in the assay on INS-1E cells it was 1 nM.

Take `CSc1ccc(S(=O)(=O)N2CCN(c3nc(C4(c5ccc(Cl)cc5)CC4)no3)CC2)cc1` [Cmpd141, 1-{3-[1-(4-Chloro-phenyl)-cyclopropyl]-[1,2,4]oxadiazol-5-yl}-4-(4-methylsulfanyl-benzenesulfonyl)-piperazine]: the results for the EC50 in the assay with M17_3SYN cells and in the assay with INS-1E cells were 12 nM and 19 nM, respectively.

Regarding `COc1ccc(S(=O)(=O)N2CCN(c3nc(C4(c5ccccc5)CC4)no3)CC2)cc1` [Cmpd120, 1-(4-Methoxy-benzenesulfonyl)-4-[3-(1-phenyl-cyclopropyl)-[1,2,4]oxadiazol-5-yl]-piperazine], the EC50 was 4 nM with M17_3SYN cells and 40 nM with INS-1E cells.

With `CCOc1ccc(S(=O)(=O)N2CCN(c3nc(C4(c5ccc(F)cc5)CC4)no3)CC2)cc1` [Cmpd106, 1-(4-Ethoxy-benzenesulfonyl)-4-{3-[1-(4-fluoro-phenyl)-cyclopropyl]-[1,2,4]oxadiazol-5-yl}-piperazine], the results for the EC50 with M17_3SYN cells and with INS-1E cells were 65 nM and 99 nM, respectively.

For `COc1ccc(S(=O)(=O)N2CCN(c3nc(C(F)(F)c4ccc(F)cc4)no3)CC2)cc1` [Cmpd146, 1-{3-[Difluoro-(4-fluoro-phenyl)-methyl]-[1,2,4]oxadiazol-5-yl}-4-(4-methoxy-benzenesulfonyl)-piperazine], the EC50 stood at 8 nM with M17_3SYN cells and 75 nM with INS-1E cells.

With `COc1ccc(S(=O)(=O)N2CCN(c3nc(COc4ccc(F)cc4)no3)CC2)cc1` [Cmpd206, 3-((4-Fluorophenoxy)methyl)-5-(4-((4-methoxyphenyl)sulfonyl)piperazin-1-yl)-1,2,4-oxadiazole], the EC50 in the assay on M17_3SYN cells came to 22 nM; in the assay on INS-1E cells, 189 nM.

Consider `CSc1ccc(S(=O)(=O)N2CCN(c3nc(C(F)(F)c4ccccc4)no3)CC2)cc1` [Cmpd157, 1-[3-(Difluoro-phenyl-methyl)-[1,2,4]oxadiazol-5-yl]-4-(4-methylsulfanyl-benzenesulfonyl)-piperazine], for which the concentration for a half-maximal effect (EC50) in the assay on M17_3SYN cells was 4 nM; in the assay with INS-1E cells, 498 nM.

Regarding `COc1ccc(S(=O)(=O)N2CCN(c3nc(C4(c5cccc(Cl)c5)CC4)no3)CC2)cc1` [Cmpd134, 1-{3-[1-(3-Chloro-phenyl)-cyclopropyl]-[1,2,4]oxadiazol-5-yl}-4-(4-methoxy-benzenesulfonyl)-piperazine], the figures for the EC50 in the assay with M17_3SYN cells and in the assay on INS-1E cells were 2 nM and 16 nM, respectively.

For the compound `CSc1ccc(S(=O)(=O)N2CCC3(CC2)CN(c2nc(CC(F)(F)F)no2)C3)cc1` [Cmpd215, 5-(7-((4-(Methylthio)phenyl)sulfonyl)-2,7-diazaspiro[3.5]nonan-2-yl)-3-(2,2,2-trifluoroethyl)-1,2,4-oxadiazole], the EC50 turned out to be 274 nM in the assay with M17_3SYN cells and 145 nM in the assay on INS-1E cells.

As to `CCOc1ccc(S(=O)(=O)N2CCN(c3nc(C4(c5cccc(Cl)c5)CC4)no3)CC2)cc1` [Cmpd135, 1-{3-[1-(3-Chloro-phenyl)-cyclopropyl]-[1,2,4]oxadiazol-5-yl}-4-(4-ethoxy-benzenesulfonyl)-piperazine], the EC50 turned out to be 28 nM in the assay with M17_3SYN cells and 129 nM in the assay on INS-1E cells.

As for `COc1ccc(S(=O)(=O)N2CCC3(CC2)CN(c2nc(C4(c5ccc(F)cc5)CC4)no2)C3)cc1` [Cmpd213, 3-(1-(4-Fluorophenyl)cyclopropyl)-5-(7-((4-methoxyphenyl)sulfonyl)-2,7-diazaspiro[3.5]nonan-2-yl)-1,2,4-oxadiazole], the EC50 in the assay with M17_3SYN cells was determined as 360 nM; in the assay with INS-1E cells, 10 nM.

`O=S(=O)(c1ccc(OC(F)F)cc1)N1CCN(c2nc(C3(c4cccc(Cl)c4)CC3)no2)CC1` [Cmpd136, 1-{3-[1-(3-Chloro-phenyl)-cyclopropyl]-[1,2,4]oxadiazol-5-yl}-4-(4-difluoromethoxy-benzenesulfonyl)-piperazine]: the half-maximal effective concentration (EC50) with M17_3SYN cells was determined as 8 nM; with INS-1E cells, 24 nM.

The values are drawn from patent publication US10562869B2, “Oxadiazole compounds” (REMYND NV, priority 2014, dated 2020).
